Columns and labels:
ClpP–αSyn interaction = test: Co-immunoprecipitation of ClpP with αSyn constructs in HEK293T cell lysates; format: cell-based; conditions: HEK293T lysates
Method: Myc-tagged WT- and A53T- αSyn, Myc-tagged ClpP, and Flag-tagged WT- and S153A- ClpP plasmids were self-constructed as previously described (Ref). To construct truncated-αSyn plasmids, pcDNA3.1(-) was digested with BsteII and XbaI, and ΔN-, ΔC- and ΔNAC-αSyn was PCR-amplified using self-designed primers and inserted into the plasmid backbone. Cells were transfected with TransIT-2020 (Mirus Bio, LLC) following the manufacturer’s protocol.
(§1) Cells or tissues were lysed in total lysis buffer (50mM Tris-HCl, pH 7.5, 150mM NaCl, 1% Triton X-100, and protease inhibitor). Total protein lysates (800 µg) were incubated with the indicated antibodies overnight at 4 °C followed by the addition of protein A/G beads (sc-2003, Santa Cruz) for 2 h at 4 °C. Various recombinant αSyn and Clpp (500 ng) were incubated in in vitro interaction buffer (20mM Tris-HCl pH 7.5, 100mM KCl, 2mM MgCl2 and 0.1% Triton-X100) for 30 min at room temperature, and then incubated with indicated antibodies overnight at 4 °C followed by the addition of protein A/G beads for 2 h at 4 °C. The beads with immuno-precipitates were pulled down at 4000 g and washed four times with total lysis buffer/in vitro interaction buffer in the presence of 0.1% Triton X-100 and were analyzed by western blot analysis.
Shown are representative blots of 3 independent experiments. Quantification of the ratio of αSyn over ClpP (pull-down) (n = 4, two-tailed Student’s t test, data are mean ± SEM).

αSyn oligomer = αSyn oligomer ELISA, Tet-inducible αSyn SH-SY5Y cells; format: cell-based, human; conditions: 10 µM, two days, vs TAT, n = 4
Method: After one day incubation with doxycycline (1µM), αSyn tet-on inducible expression SHSY5Y cells were treated with TAT or CS2 peptides at 10 µM for another two days. The level of αSyn monomer released into culture medium was measured using LEGEND MAX human αSyn ELISA kit (448607, Biolegend). The level of extracellular and intracellular αSyn oligomers was measured using human alpha synuclein oligomer ELISA kit (MBS730762, Mybioresource).

αSyn–ClpP binding = test: Immunoprecipitation of recombinant ClpP and αSyn in vitro; parameters: species or system human; conditions: recombinant ClpP pre-incubated with peptide 30 min before αSyn; anti-ClpP IP; 3 independent experiments
Method: The human recombinant WT- (#S-1001-2), A53T- (#S-1001-2), ΔNAC- (#S-1015-1) and ΔC- (#S-1012-1) αSyn and FITC-αSyn (S-1113-2) were purchased from rPeptide. The human recombinant αSyn pre-formed fibrils (PFF) (Type 1) (SPR-322) and ATTO-594-PFF (SPR-322B-A594) were purchased from StressMarq Biosciences (Bioactivity has been widely validated via various approaches, e.g. TEM, ThT).
as §1

SH-SY5Y cells = test: Mitochondrial membrane potential (TMRM) in SH-SY5Y cells; format: cell-based; conditions: SH-SY5Y expressing Venus-αSyn, n = 8
Method: Cells cultured on coverslips or 24-well plates were washed with DPBS and then incubated with 0.25 µM Tetramethylrhodamine, methyl ester (TMRM) (Invitrogen, T668), for 20 min at 37 °C. For cells cultured on coverslips, the images were visualized by microscope, and quantification of images was then carried out using NIH Fiji ImageJ software. At least 100 cells per group were counted in the analysis.

ClpP = system: ClpP
Method: ClpP peptidase activity in vitro was measured as previously described (REF). Briefly, human recombinant ClpP (10 µM, obtained from Dr. Aaron Schimmer, Princes Margartet Cancer Centre, Canada) were incubated in the reaction buffer (50mM Tris PH 8.0, 200mM KCl, 1mM DTT, 2mM ATP) under 37 °C for 10 min. For co-incubation with αSyn, recombinant ClpP and WT or C-terminal truncated or NAC-domain truncated recombinant αSyn (S-1001-1, S-1012-1, S-1015-1, rPeptide) were pre-incubated for 30 min under room temperature. Fluorescent substrate of ClpP, ac-WLA-AMC (50 µM), were then added in the reaction buffer. The fluorescence signal was read using TECAN infinite M1000 up for 30 min at excitation/emission wavelength 345/445. ClpP peptidase activity were determined as the slope of the regression line.
(C) In vitro ClpP peptidase activity was measured in presence of TAT or CS2 peptide (50/100 µM). The fluorescence intensity of ac-WLA-AMC (50 µM), a fluorogenic substrate of ClpP, was measured (0-30 min). Quantification of ClpP activity (n = 5, one-way ANOVA with Tukey’s post-hoc test; data are mean ± SEM).

CC(C)[C@H](NC(=O)CNC(=O)CNC(=O)CCCCCNC(=O)[C@H](CCCNC(=N)N)NC(=O)[C@H](CCCNC(=N)N)NC(=O)[C@H](CCCNC(=N)N)NC(=O)[C@H](CCC(N)=O)NC(=O)[C@H](CCCNC(=N)N)NC(=O)[C@H](CCCNC(=N)N)NC(=O)[C@H](CCCCN)NC(=O)[C@H](CCCCN)NC(=O)[C@H](CCCNC(=N)N)NC(=O)CNC(=O)[C@@H](N)Cc1ccc(O)cc1)C(=O)N[C@H](C(=O)N[C@H](C(=O)N[C@@H](C)C(=O)O)[C@@H](C)O)C(C)C [CS2, TAT-C6-GGVVTA]
ClpP binding to ΔC-αSyn (ClpP–αSyn interaction; Flag-ClpP + Myc-ΔC-αSyn): abolished | ClpP binding to ΔN-αSyn (ClpP–αSyn interaction; Flag-ClpP + Myc-ΔN-αSyn): abolished | ClpP binding to WT-αSyn (ClpP–αSyn interaction; WT αSyn, CS2: 24-hour treatment): abolished | extracellular αSyn oligomer (αSyn oligomer): decreased levels | intracellular αSyn oligomer (αSyn oligomer): decreased levels | αSyn–ClpP binding, recombinant (αSyn–ClpP binding): significantly reduced αSyn–ClpP binding | mitochondrial membrane potential (SH-SY5Y cells): rescued upon CS2 treatment | ClpP peptidase activity restoration, WT αSyn (ClpP): restored ClpP peptidase activity | ClpP peptidase activity, peptide alone (ClpP): neither TAT nor CS2 alone impaired ClpP activity | ClpP peptidase activity restoration, A53T αSyn (ClpP; inhibition by A53T mutant αSyn, ac-WLA-AMC 50 µM, 0–30 min, representative of 4 experiments): restored ClpP peptidase activity

Reference: PMC12751141, “Disrupting α-Synuclein–ClpP interaction restores mitochondrial function and attenuates neuropathology in Parkinson’s disease models” (Molecular Neurodegeneration, 2025)
